Data: PubChem BioAssay AID623861 (Sanford-Burnham Center for Chemical Genomics, 2012)
Active and inactive are the calls of the source.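 How the source made its calls: active means compounds whose EC50 for boosting single-cell stem cell survival is at or below a set limit; inactive means the rest.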

These molecules were tested on human iPSC single-cell survival, ATP luminescence (assay: enhancers of single-cell hiPSC survival, dose response, luminescence (AID 623861)).
`Cc1c(Nc2cc(Cl)c3nonc3c2[N+](=O)[O-])c(=O)n(-c2ccccc2)n1C` was tested, and the EC50 was > 80 µM (inactive). With `Cc1ccc([C@@H]2C[C@H]3[C@@H](CN2S(=O)(=O)c2ccc(Cl)cc2)C(=O)C[C@@H](c2ccc(C)cc2)N3S(=O)(=O)c2ccc(Cl)cc2)cc1` the EC50 was > 80 µM (inactive). In the case of `O=C(Nc1ccncc1)c1ccccc1F`, the EC50 is reported as 41 µM (inactive). For `CNc1nc(Cl)nc(NC(C)(C)C)n1`, the EC50 was > 80 µM (inactive). With `CC1(C)Cc2c(C#N)c(NCC3CCCO3)nc(-c3ccco3)c2CO1` (stereo not given) the EC50 was 15.6 µM. `CN1C2CCC1/C(=C/c1ccccn1)C(=O)/C2=C\c1ccccn1` showed an EC50 of 6.32 µM. `Cc1ccc2c(COC(=O)C3=COCCO3)cc(=O)oc2c1` was tested, and the EC50 was > 80 µM (inactive). `Cc1ccc(OCCN2CCN(c3nc(NCc4ccco4)c4ccccc4n3)CC2)cc1` gave an EC50 of 2.81 µM. In the case of `COc1ccccc1CC(=O)Nc1ccc(-c2noc(COc3cccc(C)c3C)n2)cc1`, the EC50 is reported as > 80 µM (inactive). For `Oc1ccc(-c2onc(C(F)(F)F)c2-c2cscn2)c(O)c1`, the EC50 was > 80 µM (inactive). For `CCCSc1nc(N2CCOCC2)c2c(c1C#N)CC(C)(C)SC2`, the EC50 was 25.6 µM (inactive). Work on `O=C(Nc1nc(-c2ccncc2)cs1)C1COc2ccccc2O1` (stereo not given) yielded an EC50 of 3.19 µM. In the case of `CN(CCOc1ccc(-c2ccn(S(=O)(=O)c3c(Cl)cccc3Cl)n2)cc1)c1ccccn1`, the EC50 is reported as > 80 µM (inactive). Work on `CNc1cc(Cl)c2nonc2c1[N+](=O)[O-]` yielded an EC50 of 12.9 µM. In the case of `O=C(Nc1cccnc1Cl)c1cccnc1Cl`, the EC50 is reported as > 80 µM (inactive). For `CC1CNCCN1S(=O)(=O)c1cccc2cnccc12` (stereo not given), the EC50 was > 80 µM (inactive). With `COCCNC(=O)c1ccc(-c2cn[nH]c2)c2ccoc12` the EC50 was 11.2 µM. With `C=C(C)[C@@]12OC3(c4ccccc4)O[C@@H]1C1[C@@H]4O[C@]4(CO)[C@@H](O)[C@]4(O)C(=O)C(C)=C[C@H]4[C@@]1(O3)[C@H](C)[C@H]2OC(=O)/C=C/C=C/c1ccccc1` (stereo not given in full) the EC50 was < 0.156 µM. For `Cc1ccc(-n2nc(C)c3c(C)cc(=O)[nH]c32)cc1`, the EC50 was > 80 µM (inactive). In the case of `O=C(NC1CCCCC1)N(Cc1nc2ccccc2c(=O)[nH]1)C1CCCCC1`, the EC50 is reported as > 80 µM (inactive). In the case of `OC(c1ccc(Cl)cc1)c1ncc(-c2cccc(C(F)(F)F)c2)[nH]1` (stereo not given), the EC50 is reported as > 80 µM (inactive). `C=C1C(C)C2C(Cc3ccccc3)NC(=O)C23C(OC(C)=O)C=CC(C)(O)CC(C)CC=CC3C1O` (stereo not given) showed an EC50 of 0.448 µM. `COc1ccc(N2C(=O)CC(Sc3nccc(C)n3)C2=O)c(OC)c1` (stereo not given) was tested, and the EC50 was > 80 µM (inactive). For `O=C(CNC(=O)c1ccccc1)OC(C(=O)Nc1cc(C(F)(F)F)ccc1Cl)c1ccccc1` (stereo not given), the EC50 was > 80 µM (inactive). In the case of `Cc1c(C(=O)OCC(=O)Nc2ccc(C(N)=O)cc2)cccc1[N+](=O)[O-]`, the EC50 is reported as 60.8 µM (inactive). Work on `O=C(C(O)c1ccc(Br)cc1)N1CCC(Nc2ccc3[nH]ncc3c2)CC1` (stereo not given) yielded an EC50 of 6.68 µM. `COc1ccc(OC)c(NC(=O)C(CC(C)C)NC(=O)C2CCCCC2)c1` (stereo not given) was tested, and the EC50 was > 80 µM (inactive). For `Cc1ccc(C(=O)OCc2cc(=O)n3ccsc3n2)s1`, the EC50 was > 80 µM (inactive). For `O=C(O)c1ccccc1C(=O)NCC(O)COCC1CC=CCC1` (stereo not given), the EC50 was > 80 µM (inactive). `CCOC(=O)c1c(-c2cc(OC)c(OC)c(OC)c2)csc1N` was tested, and the EC50 was > 80 µM (inactive). Work on `O=C(NCc1ccccc1)c1ccc(-c2cn[nH]c2)c2ccoc12` yielded an EC50 of 1.22 µM. In the case of `CC(Oc1ccccc1)C(=O)Nc1nc(-c2ccncc2)cs1` (stereo not given), the EC50 is reported as 37.8 µM (inactive). `COC(=O)CCSc1cc([N+](=O)[O-])cc2c1c(C1OCCS1)nn2-c1ccccc1` (stereo not given) was tested, and the EC50 was 42.7 µM (inactive). In the case of `CCCc1ccc(C(=O)N2CCN(c3ccccc3OCC)CC2)cc1`, the EC50 is reported as > 80 µM (inactive). `O=C1CCC2(C(=O)O)Sc3ccccc3N12` (stereo not given) was tested, and the EC50 was > 80 µM (inactive). `COc1c(Cl)cnn(-c2ccc(C)cc2)c1=O` was tested, and the EC50 was > 80 µM (inactive). `c1ccc(CN2CCN(c3nc(NCc4ccco4)c4ccccc4n3)CC2)cc1` was tested, and the EC50 was 1.05 µM. In the case of `Cc1ccc(S(=O)(=O)N[C@H](C(=O)OCC(=O)NC(=O)NCc2ccco2)C(C)C)cc1`, the EC50 is reported as > 80 µM (inactive). In the case of `CS(=O)(=O)Nc1ccc2c3c(cccc13)CC2`, the EC50 is reported as > 80 µM (inactive). For `O=C(Cc1ccc(Br)cc1)Nc1ccc2[nH]ncc2c1`, the EC50 was 25.2 µM (inactive). In the case of `O=C(NCCCN1CCCCCC1)C1CC(=O)N(CCc2ccccc2)C1` (stereo not given), the EC50 is reported as > 80 µM (inactive). `COc1ccc2c(c1)c(=O)c(C(=O)c1ccc(Cl)cc1)cn2CC(=O)Nc1ccc(F)cc1` gave an EC50 of 15.6 µM. Molecule `C=C1C(C)C2C(Cc3ccccc3)NC(=O)C23OC(=O)/C=C/C(O)CCCC(C)C/C=C/C3C1O` (stereo not given) has an EC50 of 11.5 µM. In the case of `O=C(Nc1ccc(N2CCOCC2)cc1)c1cccc(S(=O)(=O)N2CCCC2)c1`, the EC50 is reported as > 80 µM (inactive). For `COc1ccc(CC(=O)N2N=C(c3ccncc3)CC2(O)C(F)(F)F)cc1` (stereo not given), the EC50 was > 80 µM (inactive). With `C[C@@H]1CN([C@@H](C)CO)C(=O)c2cc(Br)cnc2O[C@H]1CN(C)C(=O)C1CC1` the EC50 was > 80 µM (inactive). With `Cn1nc(-c2ccccc2)c(C(O)c2ccccc2C(F)(F)F)c1Cl` (stereo not given) the EC50 was > 80 µM (inactive). For `O=c1c(Cl)c(Cl)cnn1Cc1nnc(-c2ccccc2Br)o1`, the EC50 was 8.37 µM. In the case of `O=c1cc(-c2ccccc2)nc2nc(SCc3ccccc3)[nH]n12`, the EC50 is reported as > 80 µM (inactive). `CCCCn1c(=O)[nH]c(=O)c2c1nc(Cn1ncc(Cl)c(Cl)c1=O)n2CCC` showed an EC50 of 5.62 µM. For `Cn1c(=O)cc(OCCCC(=O)Nc2cccc(Cl)c2)c2ccccc21`, the EC50 was > 80 µM (inactive). With `CCOC1=C2[C@H](c3ccc(C)cc3)N(S(=O)(=O)c3ccc(C)cc3)C[C@H]2n2c(=O)n(-c3ccccc3)c(=O)n2C1` the EC50 was > 80 µM (inactive). `O=C(COc1ccccc1)Nc1nc(-c2ccncc2)cs1` showed an EC50 of 15.9 µM. With `COc1ccc(C2=CC(=O)C[C@H](c3ccc(OC)c(OC)c3)C2)cn1` the EC50 was > 80 µM (inactive). `CCC(OC(=O)c1ccc(S(C)(=O)=O)c([N+](=O)[O-])c1)C(=O)NC1C2CC3CC(C2)CC1C3` (stereo not given) was tested, and the EC50 was > 80 µM (inactive). For `O=C(COC(=O)c1ccccc1C(=O)c1ccc(Cl)c([N+](=O)[O-])c1)NC1CC1`, the EC50 was > 80 µM (inactive). `O=C(Nc1ccncc1)c1c(F)c(F)c(F)c(F)c1F` showed an EC50 of 5.93 µM. In the case of `O=C(O)c1cc(C(=O)C2CC2)c[nH]1`, the EC50 is reported as > 80 µM (inactive). `CCc1c(C(=O)Nc2ccc(OC)cc2)[nH]c(C)c1C(C)=O` was tested, and the EC50 was > 80 µM (inactive). `CC1C/C(=C/c2ccncc2)C(=O)/C(=C/c2ccncc2)C1` (stereo not given) gave an EC50 of 12.9 µM. For `CCSc1cnn(-c2ccccc2)c(=O)c1Cl`, the EC50 was > 80 µM (inactive). `CN(C)c1ccc(-c2ccnc3c2CC(C)(C(=O)Nc2ccc(Cl)c(C(F)(F)F)c2)O3)cc1` (stereo not given) was tested, and the EC50 was > 80 µM (inactive). With `CCCCCCn1c(SCCN2CCOCC2)nc2c1c(=O)[nH]c(=O)n2C` the EC50 was > 80 µM (inactive). `CC(=O)c1ccccc1NC(=O)COC(=O)CCCN1C(=O)c2cccc3cccc(c23)C1=O` was tested, and the EC50 was > 80 µM (inactive). In the case of `O=C(Nc1ccncc1)c1cc(S(=O)(=O)N2CCOCC2)ccc1Cl`, the EC50 is reported as 20.4 µM (inactive). In the case of `COc1cc(CC(CC(=O)O)CC(C)OCc2ccccc2)cc(OC)c1` (stereo not given), the EC50 is reported as > 80 µM (inactive). In the case of `O=S(=O)(c1cccc2cnccc12)N1CCNCC1`, the EC50 is reported as 2.89 µM. With `CS(=O)(=O)N(Cc1cc2ccccc2[nH]c1=O)C1CCCCC1` the EC50 was > 80 µM (inactive). In the case of `Cc1sc(-c2ccccn2)nc1OC(=O)c1ccc(Cl)c(Cl)c1`, the EC50 is reported as > 80 µM (inactive). With `Cc1c(C(=O)NCc2ccccc2C(F)(F)F)sc(=O)n1Cc1ccc2ccccc2c1` the EC50 was > 80 µM (inactive).
